Measurements taken from ChEMBL document CHEMBL1201862, “PubChem BioAssay data set” (2004).
Active and inactive are the calls of the source.

Test system: H9c2;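 further: confirmatory concentration-response retest of ultra-high-throughput screening hits for modulation of myocardial damage; cell death induced by hydrogen peroxide oxidative stress; compound pretreatment for 60 min then peroxide exposure for 2 h; potency is for protecting the cells against peroxide damage rather than for killing them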
Experiment: cells
Format: functional, cell-based
Conditions: Rattus norvegicus, H9c2, Myocardium

SMILES | IC50
COCCN1Cc2cccc(C(=O)Nc3cccc(-c4nc5ccccc5[nH]4)c3)c2C1=O | > 79 µM (inactive)

Biological target: Cytochrome P450 3A4 (Homo sapiens, UniProt P08684);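 further: CYP3A4 tested as one member of a cytochrome P450 panel screen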
Sequence (P08684 whole entry): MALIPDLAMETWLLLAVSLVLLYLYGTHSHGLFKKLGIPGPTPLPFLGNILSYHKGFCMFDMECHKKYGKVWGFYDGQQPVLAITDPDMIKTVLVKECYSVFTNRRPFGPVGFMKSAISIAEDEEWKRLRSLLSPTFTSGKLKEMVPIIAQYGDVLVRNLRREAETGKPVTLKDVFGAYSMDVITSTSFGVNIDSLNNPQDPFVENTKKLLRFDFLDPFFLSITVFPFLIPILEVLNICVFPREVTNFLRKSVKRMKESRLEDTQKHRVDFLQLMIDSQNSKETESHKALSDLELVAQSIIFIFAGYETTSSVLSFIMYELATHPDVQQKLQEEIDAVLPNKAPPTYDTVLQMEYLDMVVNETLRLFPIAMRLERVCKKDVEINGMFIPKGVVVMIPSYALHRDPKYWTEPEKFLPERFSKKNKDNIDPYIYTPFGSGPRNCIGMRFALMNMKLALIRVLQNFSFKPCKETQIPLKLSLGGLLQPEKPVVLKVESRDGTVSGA
Experiment: not given
Conditions: not given

SMILES | AC50
CCN(CC)CCN1C(=O)C(O)=C(C(=O)c2ccc(OC)cc2)C1c1cccs1 (stereo not given) | 17.8 µM (inconclusive)
CNc1ccnc(-c2c(C)noc2C)n1 | 39.8 µM (inconclusive)

Biological target: T1, Heat shock factor protein 1 (Mus musculus, UniProt P38532)
T1 sequence (P38532 whole entry): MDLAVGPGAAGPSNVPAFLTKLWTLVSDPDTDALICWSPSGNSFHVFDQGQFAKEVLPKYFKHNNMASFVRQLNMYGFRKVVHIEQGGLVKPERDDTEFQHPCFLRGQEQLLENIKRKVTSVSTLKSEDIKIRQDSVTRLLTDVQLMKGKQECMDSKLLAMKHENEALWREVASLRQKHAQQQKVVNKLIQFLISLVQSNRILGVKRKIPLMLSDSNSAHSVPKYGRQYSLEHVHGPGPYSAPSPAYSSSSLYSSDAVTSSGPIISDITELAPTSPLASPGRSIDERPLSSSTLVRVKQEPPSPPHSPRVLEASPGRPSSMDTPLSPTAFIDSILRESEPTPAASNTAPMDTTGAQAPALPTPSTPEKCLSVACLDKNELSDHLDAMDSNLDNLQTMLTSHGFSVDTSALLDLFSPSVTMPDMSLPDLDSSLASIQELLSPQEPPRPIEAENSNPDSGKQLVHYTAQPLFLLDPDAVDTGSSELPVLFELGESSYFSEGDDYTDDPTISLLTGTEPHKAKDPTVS
Experiment: HSF1 potentiators in luciferase reporter cells, confirmation, cell-based, NIH3T3, luminescence, dose retest (AID 435004);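 further: stress induced by proteasome inhibitor MG132 added 30 min after compound; luciferase reporter driven by HSF1 response element in NIH3T3 cells; actives raise luminescence as potentiators of the MG132 stress response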
Format: functional
Conditions: not given

SMILES | EC50
Cc1cccc(C)c1OCC(=O)NCc1nnc(SCC(=O)NC2CCCCC2C)n1C (stereo not given) | > 260 µM (inactive)

Biological target: DNA dC->dU-editing enzyme APOBEC-3G (Homo sapiens, UniProt Q9HC16);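 further: Dose-response counterscreen measuring inhibition of APOBEC3G DNA deaminase activity, run while confirming APOBEC3A inhibitors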
Sequence (Q9HC16 whole entry): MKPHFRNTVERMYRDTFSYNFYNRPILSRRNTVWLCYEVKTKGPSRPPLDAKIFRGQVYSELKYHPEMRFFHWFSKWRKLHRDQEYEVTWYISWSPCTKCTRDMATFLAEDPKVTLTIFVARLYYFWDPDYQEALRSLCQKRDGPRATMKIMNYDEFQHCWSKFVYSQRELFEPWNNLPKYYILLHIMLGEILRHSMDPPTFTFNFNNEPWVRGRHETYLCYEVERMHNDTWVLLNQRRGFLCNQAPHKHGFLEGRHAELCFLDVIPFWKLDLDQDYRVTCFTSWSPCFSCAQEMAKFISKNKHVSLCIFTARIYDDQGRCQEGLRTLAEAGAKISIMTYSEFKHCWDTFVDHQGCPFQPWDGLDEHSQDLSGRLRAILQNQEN
Experiment: not given
Format: functional
Conditions: not given

SMILES | IC50
COc1cc(Nc2cccc[n+]2C)cc(OC)c1OC | 2.85 µM (active)
Cc1cccc(C)c1OCC(=O)NCc1nnc(SCC(=O)NC2CCCCC2C)n1C (stereo not given) | 6.2 µM (active)
CCN1C(NCCCCO)=N[C@@H](c2cccc(C(F)(F)F)c2)C(C(=O)OC)=C1C | 2.44 µM (active)
CC[C@]12C=CCN3CCC4(c5cc(Br)c(OC)cc5N(C)C4[C@@](O)(C(=O)OC)[C@@H]1OC(C)=O)C32 (stereo not given in full) | 1.81 µM (active)
CC[N+](C)(CC)CC(=O)OCC1C(C)C=C(C)CC1C (stereo not given) | 2.04 µM (active)
O=C(NCCOc1ccccc1)c1nc[nH]n1 | 18.7 µM (active)
CN1CCC(N(C)S(=O)(=O)c2ccc(NC(=O)c3ccc(S(=O)(=O)N(C)C)cc3)cc2)CC1 | 16 µM (active)
CCN(CC)CCNC(=O)c1ccc(NC(=O)C2CC(=O)N(c3ccc4c(c3)OCCO4)C2)cc1 (stereo not given) | 8.16 µM (active)
CC(C)C(NC(=O)c1ccc2c(c1)OCO2)C(=O)N/N=C\c1ccco1 (stereo not given) | 15.9 µM (active)

Biological target: DNA dC->dU-editing enzyme APOBEC-3A (Homo sapiens, UniProt P31941)
Sequence (P31941 whole entry): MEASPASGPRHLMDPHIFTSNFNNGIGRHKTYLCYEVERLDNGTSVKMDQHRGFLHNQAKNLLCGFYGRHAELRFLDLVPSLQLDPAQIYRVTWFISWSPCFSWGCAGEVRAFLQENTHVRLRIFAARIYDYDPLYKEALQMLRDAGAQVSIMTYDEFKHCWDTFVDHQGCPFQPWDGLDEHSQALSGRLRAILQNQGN
Experiment: Dose Response confirmation of small molecule APOBEC3A DNA Deaminase Inhibitors via a fluorescence-based single-stranded DNA deaminase assay. [Related pubchem assays (depositor defined):AID493011, AID493024]
Format: functional
Conditions: not given

SMILES | IC50
COc1cc(Nc2cccc[n+]2C)cc(OC)c1OC | 3.48 µM (active)
Cc1cccc(C)c1OCC(=O)NCc1nnc(SCC(=O)NC2CCCCC2C)n1C (stereo not given) | 2.78 µM (active)
CCN1C(NCCCCO)=N[C@@H](c2cccc(C(F)(F)F)c2)C(C(=O)OC)=C1C | 2.59 µM (active)
CC[C@]12C=CCN3CCC4(c5cc(Br)c(OC)cc5N(C)C4[C@@](O)(C(=O)OC)[C@@H]1OC(C)=O)C32 (stereo not given in full) | 2.14 µM (active)
CC[N+](C)(CC)CC(=O)OCC1C(C)C=C(C)CC1C (stereo not given) | 1.31 µM (active)
O=C(NCCOc1ccccc1)c1nc[nH]n1 | 6.18 µM (active)
CN1CCC(N(C)S(=O)(=O)c2ccc(NC(=O)c3ccc(S(=O)(=O)N(C)C)cc3)cc2)CC1 | 13.9 µM (active)
CCN(CC)CCNC(=O)c1ccc(NC(=O)C2CC(=O)N(c3ccc4c(c3)OCCO4)C2)cc1 (stereo not given) | 7.53 µM (active)
CC(C)C(NC(=O)c1ccc2c(c1)OCO2)C(=O)N/N=C\c1ccco1 (stereo not given) | > 100 µM (inactive)

Biological target: T2, RNA-binding protein pos-1 (Caenorhabditis elegans, UniProt G5EF15)
T2 sequence (G5EF15 whole entry): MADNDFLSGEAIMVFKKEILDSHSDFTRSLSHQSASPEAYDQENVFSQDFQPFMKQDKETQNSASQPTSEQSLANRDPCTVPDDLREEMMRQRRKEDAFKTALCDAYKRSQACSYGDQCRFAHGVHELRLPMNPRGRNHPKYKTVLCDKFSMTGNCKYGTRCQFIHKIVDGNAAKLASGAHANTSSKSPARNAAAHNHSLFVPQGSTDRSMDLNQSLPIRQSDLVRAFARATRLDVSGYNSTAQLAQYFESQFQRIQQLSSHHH
Experiment: inhibitors of POS-1/mex-3 RNA binding, dose response, biochemical, fluorescence polarization (AID 1964);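 further: purified POS-1 fused to maltose binding protein made in E. coli; potency of compounds blocking POS-1 binding to fluorescent RNA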
Conditions: not given

SMILES | EC50
COc1ccc(/C=C(\C#N)C(=O)NCC2CCCO2)cc1OC (stereo not given) | > 300 µM (not active)

Biological target: T3, Protein skinhead-1 (Caenorhabditis elegans, UniProt P34707)
T3 sequence (P34707 whole entry): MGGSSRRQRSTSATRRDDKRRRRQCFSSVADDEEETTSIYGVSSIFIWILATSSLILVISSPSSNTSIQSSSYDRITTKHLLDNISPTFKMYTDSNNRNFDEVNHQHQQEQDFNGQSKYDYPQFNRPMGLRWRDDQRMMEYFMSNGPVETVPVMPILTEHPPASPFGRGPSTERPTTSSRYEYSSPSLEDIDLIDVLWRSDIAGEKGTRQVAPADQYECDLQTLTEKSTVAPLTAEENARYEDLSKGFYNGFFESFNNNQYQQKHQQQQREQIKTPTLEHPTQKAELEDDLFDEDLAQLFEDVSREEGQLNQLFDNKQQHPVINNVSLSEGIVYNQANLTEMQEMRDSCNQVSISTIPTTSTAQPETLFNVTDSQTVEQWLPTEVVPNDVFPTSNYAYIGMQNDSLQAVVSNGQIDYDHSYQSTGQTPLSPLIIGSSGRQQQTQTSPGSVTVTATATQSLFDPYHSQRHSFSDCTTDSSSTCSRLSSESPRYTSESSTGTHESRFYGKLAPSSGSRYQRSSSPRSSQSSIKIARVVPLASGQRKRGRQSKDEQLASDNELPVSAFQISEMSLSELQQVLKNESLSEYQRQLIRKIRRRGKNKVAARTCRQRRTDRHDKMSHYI
Experiment: not given
Format: functional
Conditions: not given

SMILES | IC50
COc1ccc(/C=C(\C#N)C(=O)NCC2CCCO2)cc1OC (stereo not given) | > 100 µM (inactive)

Test system: not listed separately
Experiment: intracellular Trypanosoma cruzi inhibitors in host cells – cell-based, plate reader, cherry-pick samples, set 3, dose response (AID 651818);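 further: compounds incubated with infected cells for about four days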
Format: functional
Conditions: not given

SMILES | AC50
COc1ccc(S(=O)(=O)Nc2ccc3c(c2)CC(=O)N([C@H](C)CO)C[C@@H](C)[C@@H](CN(C)Cc2ccc(Oc4ccccc4)cc2)O3)cc1 | 2.26 µM (active)
C[C@H]1CN([C@@H](C)CO)C(=O)c2cc(NC(=O)Nc3ccc(F)cc3)ccc2O[C@H]1CN(C)Cc1ccc(-c2ccccc2)cc1 | 3.74 µM (active)
C[C@@H]1CN([C@@H](C)CO)C(=O)c2cc(NS(=O)(=O)c3ccc(F)cc3)ccc2O[C@H]1CN(C)Cc1ccc(C(=O)Nc2ccccc2N)cc1 | 3.6 µM (active)
C[C@H]1CN([C@@H](C)CO)C(=O)c2cc(NC(=O)Cc3cn(C)c4ccccc34)ccc2O[C@H]1CN(C)Cc1ccc(Oc2ccccc2)cc1 | 6.34 µM (active)

Biological target: Cytochrome P450 2C9 (Homo sapiens, UniProt P11712)
Sequence (P11712 whole entry): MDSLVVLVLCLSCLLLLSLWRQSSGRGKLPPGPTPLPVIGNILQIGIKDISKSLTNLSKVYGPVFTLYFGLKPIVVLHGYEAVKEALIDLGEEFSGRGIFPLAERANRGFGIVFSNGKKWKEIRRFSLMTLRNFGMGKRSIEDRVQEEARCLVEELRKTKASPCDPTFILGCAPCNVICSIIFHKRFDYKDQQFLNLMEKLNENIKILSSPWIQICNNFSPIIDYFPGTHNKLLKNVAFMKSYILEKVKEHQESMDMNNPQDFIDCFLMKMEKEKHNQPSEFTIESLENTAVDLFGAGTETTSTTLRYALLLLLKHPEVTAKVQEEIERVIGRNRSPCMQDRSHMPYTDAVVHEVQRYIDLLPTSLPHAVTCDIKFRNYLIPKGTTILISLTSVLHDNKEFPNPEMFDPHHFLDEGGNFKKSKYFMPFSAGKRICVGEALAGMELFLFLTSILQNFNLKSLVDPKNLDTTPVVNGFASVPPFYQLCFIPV
Experiment: not given
Conditions: not given

SMILES | AC50
CCN(CC)CCN1C(=O)C(O)=C(C(=O)c2ccc(OC)cc2)C1c1cccs1 (stereo not given) | inconclusive
COc1ccc(/C=C(\C#N)C(=O)NCC2CCCO2)cc1OC (stereo not given) | inconclusive
CNc1ccnc(-c2c(C)noc2C)n1 | inconclusive

Biological target: Cytochrome P450 2C19 (Homo sapiens, UniProt P33261)
Sequence (P33261 whole entry): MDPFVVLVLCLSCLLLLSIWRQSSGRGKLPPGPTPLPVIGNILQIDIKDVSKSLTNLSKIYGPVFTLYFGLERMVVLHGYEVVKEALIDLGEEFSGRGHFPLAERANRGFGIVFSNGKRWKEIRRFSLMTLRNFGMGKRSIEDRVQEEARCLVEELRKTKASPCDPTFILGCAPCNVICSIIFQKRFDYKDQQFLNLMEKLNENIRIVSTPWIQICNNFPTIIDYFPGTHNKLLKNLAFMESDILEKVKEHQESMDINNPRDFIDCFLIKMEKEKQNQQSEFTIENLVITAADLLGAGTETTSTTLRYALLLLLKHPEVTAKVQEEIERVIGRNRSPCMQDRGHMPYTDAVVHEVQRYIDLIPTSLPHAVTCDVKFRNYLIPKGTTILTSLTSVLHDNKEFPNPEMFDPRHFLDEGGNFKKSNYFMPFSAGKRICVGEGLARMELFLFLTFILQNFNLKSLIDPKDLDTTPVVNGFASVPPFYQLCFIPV
Experiment: Cytochrome panel assay with activity outcomes. Panel member name: p450-cyp2c19 Compounds with AC50 equal or less than 10 uM are considered active
Format: functional
Conditions: not given

SMILES | AC50
CNc1ccnc(-c2c(C)noc2C)n1 | inconclusive

Test system: Vero
Experiment: cells
Format: functional
Conditions: Chlorocebus sabaeus

SMILES | CC50
COCCN1Cc2cccc(C(=O)Nc3cccc(-c4nc5ccccc5[nH]4)c3)c2C1=O | > 25 µM (active)

Biological target: T4, Cytochrome P450 1A2 (Homo sapiens, UniProt P05177);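 further: PubChem cytochrome P450 panel assay, CYP1A2 panel member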
T4 sequence (P05177 whole entry): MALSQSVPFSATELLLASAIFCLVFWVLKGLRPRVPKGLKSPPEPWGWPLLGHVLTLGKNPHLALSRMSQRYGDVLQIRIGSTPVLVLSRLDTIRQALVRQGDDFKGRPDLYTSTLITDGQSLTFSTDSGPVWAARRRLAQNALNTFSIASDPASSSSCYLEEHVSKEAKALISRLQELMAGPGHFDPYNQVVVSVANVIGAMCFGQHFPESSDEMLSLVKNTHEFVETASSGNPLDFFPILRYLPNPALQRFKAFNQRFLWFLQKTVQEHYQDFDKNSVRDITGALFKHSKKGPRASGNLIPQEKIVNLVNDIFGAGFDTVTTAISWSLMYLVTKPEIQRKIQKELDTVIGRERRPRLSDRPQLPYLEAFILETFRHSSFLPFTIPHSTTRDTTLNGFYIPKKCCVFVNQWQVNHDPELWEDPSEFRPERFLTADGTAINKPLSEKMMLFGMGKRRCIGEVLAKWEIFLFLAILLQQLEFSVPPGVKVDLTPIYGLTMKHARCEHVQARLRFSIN
Experiment: not given
Conditions: not given

SMILES | AC50
COc1ccc(/C=C(\C#N)C(=O)NCC2CCCO2)cc1OC (stereo not given) | 22.4 µM (inconclusive)

Biological target: T5, Zinc finger protein mex-5 (Caenorhabditis elegans, UniProt Q9XUB2)
T5 sequence (Q9XUB2 whole entry): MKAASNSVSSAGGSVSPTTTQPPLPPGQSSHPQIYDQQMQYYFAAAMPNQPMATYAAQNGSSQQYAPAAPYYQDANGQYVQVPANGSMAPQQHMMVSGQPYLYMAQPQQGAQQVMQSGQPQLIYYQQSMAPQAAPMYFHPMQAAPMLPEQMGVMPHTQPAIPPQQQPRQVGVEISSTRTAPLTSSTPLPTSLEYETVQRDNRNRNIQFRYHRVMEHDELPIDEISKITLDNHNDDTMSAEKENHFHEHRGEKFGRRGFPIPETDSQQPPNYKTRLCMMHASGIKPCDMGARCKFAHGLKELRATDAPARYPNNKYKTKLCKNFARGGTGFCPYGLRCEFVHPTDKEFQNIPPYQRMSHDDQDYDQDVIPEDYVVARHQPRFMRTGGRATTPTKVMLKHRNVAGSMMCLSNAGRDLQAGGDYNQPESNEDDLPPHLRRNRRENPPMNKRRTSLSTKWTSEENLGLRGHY
Experiment: MEX-5/TCR-2 RNA interaction inhibitors, dose response, biochemical, C. elegans, fluorescence polarization (AID 1960)
Conditions: not given

SMILES | EC50
COc1ccc(/C=C(\C#N)C(=O)NCC2CCCO2)cc1OC (stereo not given) | > 300 µM (not active)
